Patent US20140212382A1, “PURINE MONOPHOSPHATE PRODRUGS FOR TREATMENT OF VIRAL INFECTIONS” (EMORY UNIVERSITY, priority 2011, published 2014)
Where two headings read alike, the source gives them in different places.

Legend:
[1] = test system: HCV Replicon RNA in Huh 7 Clone B cells; test: HCV replicon assay; type: cell-based; details: Hepatitis C virus
Procedure: (§1) Huh 7 Clone B cells containing HCV Replicon RNA were seeded in a 96-well plate at 5000 cells/well, and the compounds tested at 10 μM in triplicate immediately after seeding. Following five days incubation (37° C., 5% CO2), total cellular RNA was isolated using the versaGene RNA purification kit from Gentra. Replicon RNA and an internal control (TaqMan rRNA control reagents, Applied Biosystems) were amplified in a single step multiplex Real Time RT-PCR Assay. The antiviral effectiveness of the compounds was calculated by subtracting the threshold RT-PCR cycle of the test compound from the threshold RT-PCR cycle of the no-drug control (ΔCt HCV). A ΔCt of 3.3 equals a 1-log reduction (equal to 90% less starting material) in Replicon RNA levels. The cytotoxicity of the compounds was also calculated using the ΔCt rRNA values. (2′-C-Me-C) was used as the control. To determine EC90 and IC50 values^2, ΔCt: values were first converted into a fraction of the starting material,^3 and then were used to calculate the % inhibition. The data on three compounds (Compound 12, Compound 8a, and compound 8b-up) is shown below in Table 3.

[2] = Cytotoxicity in HCV replicon assay (ΔCt rRNA); type: cell-based; details: human, HCV Replicon (Huh7)
Procedure: as §1

Huh7 cells = test: Cellular pharmacology in Huh7 cells (LC/MS of nucleotides formed); type: in vitro ADME; details: 50 μM, 4 hr
Procedure: Similar to the method outlined for HepG2 cellular pharmacology, compounds are incubated in Huh-7 cells for 4 hr at the concentration of 50 μM in triplicate. […] Ice-cold 70% methanol can be used as the extraction solvent. ddATP (10 nM) can be used as the internal standard.

[3] = test system: MtDNA, HepG2 Hepatoma cells; test: Mitochondrial toxicity in HepG2 cells: mitochondrial DNA content; type: cell-based
Excerpt: A real-time PCR assay to accurately quantify mitochondrial DNA content has been developed (see Stuyver L J, Lostia S, Adams M, Mathew J S, Pai B S, Grier J, Tharnish P M, Choi Y, Chong Y, Choo H, Chu C K, Otto M J, Schinazi R F. Antiviral activities and cellular toxicities of modified 2′,3′-dideoxy-2′,3′-didehydrocytidine analogs. Antimicrob. Agents Chemother. 2002; 46: 3854-60). This assay was used in all studies described in this application that determine the effect of nucleoside analogs on mitochondrial DNA content. In this assay, low-passage-number HepG2 cells were seeded at 5,000 cells/well in collagen-coated 96-well plates. Nucleoside monophosphate analogs were added to the medium to obtain final concentrations of 0 μM, 0.1 μM, 10 μM and 100 μM. On culture day 7, cellular nucleic acids were prepared by using commercially available columns (RNeasy 96 kit; Qiagen). […] The mitochondrial cytochrome c oxidase subunit II (COXII) gene and the β-actin or rRNA gene were amplified from 5 μl of the eluted nucleic acids using a multiplex Q-PCR protocol with suitable primers and probes for both target and reference amplifications. For COXII the following sense, probe and antisense primers are used, respectively: 5′-[…]-3′,5′-tetrachloro-6-carboxyfluorescein-[…]-TAMRA-3′ and 5′-[…]-3′. For exon 3 of the β-actin gene (GenBank accession number E01094) the sense, probe, and antisense primers are 5′-[…]-3′,5′-6-[…]-3′ and 5′-[…]-3′, respectively. The primers and probes for the rRNA gene are commercially available from Applied Biosystems. Since equal amplification efficiencies were obtained for all genes, the comparative CT method was used to investigate potential inhibition of mitochondrial DNA synthesis. The comparative CT method uses arithmetic formulas in which the amount of target (COXII gene) is normalized to the amount of an endogenous reference (the β-actin or rRNA gene) and is relative to a calibrator (a control with no drug at day 7). The arithmetic formula for this approach is given by 2-ΔΔCT, where ΔΔCT is (CT for average target test sample−CT for target control)−(CT for average reference test−CT for reference control) (see Johnson M R, K Wang, J B Smith, M J Heslin, R B Diasio. Quantitation of dihydropyrimidine dehydrogenase expression by real-time reverse transcription polymerase chain reaction. Anal. Biochem. 2000; 278:175-184). A decrease in mitochondrial DNA content in cells grown in the presence of drug would indicate mitochondrial toxicity.
(§2) The effect of compounds 8b-up, 12, and 8a on nuclear or mitochondrial DNA, or lactic acid production, in HepG2 Hepatoma cells was analyzed over a 14 day period. The procedure outlined in section (i) above was used for this analysis.

PBM cells = test: Cellular pharmacology in PBM cells (LC-MS/MS of intracellular metabolites); type: in vitro ADME; details: 50 μM, 4 h, 37° C.
Procedure: Test compounds are incubated in PBM cells at 50 μM for 4 h at 37° C. Then the drug containing media is removed and the PBM cells are washed twice with PBS to remove extracellular drugs. The intracellular drugs are extracted from 10×10^6 PBM cells using 1 mL 70% ice-cold methanol (containing 10 nM of the internal standard ddATP). Following precipitation, the samples are maintained at room temperature for 15 min followed by vortexing for 30 sec, and then stored 12 h at −20° C. The supernatant is then evaporated to dryness. Dry samples would be stored at −20° C. until LC-MS/MS analysis. Prior to analysis, each sample is reconstituted in 100 μL mobile phase A, and centrifuged at 20,000 g to remove insoluble particulates.
Gradient separation is performed on a Hypersil GOLD column (100×1.0 mm, 3 μm particle size; Thermo Scientific, Waltham, Mass., USA). Mobile phase A consists of 2 mM ammonium phosphate and 3 mM hexylamine. Acetonitrile is increased from 10 to 80% in 15 min, and kept at 80% for 3 min. Equilibration at 10% acetonitrile lasts 15 min. The total run time is 33 min. The flow rate is maintained at 50 μL/min and a 10 μL injection is used. The autosampler and the column compartment are typically maintained at 4.5 and 30° C., respectively.
The first 3.5 min of the analysis is diverted to waste. The mass spectrometer is operated in positive ionization mode with a spray voltage of 3.2 kV.

[4] = test system: nuclear DNA, HepG2 Hepatoma cells; test: Mitochondrial toxicity in HepG2 cells: nuclear DNA content; type: cell-based
Procedure: This assay was used in all studies described in this application that determine the effect of nucleoside analogs on mitochondrial DNA content. In this assay, low-passage-number HepG2 cells were seeded at 5,000 cells/well in collagen-coated 96-well plates. […] On culture day 7, cellular nucleic acids were prepared by using commercially available columns (RNeasy 96 kit; Qiagen). […] The mitochondrial cytochrome c oxidase subunit II (COXII) gene and the β-actin or rRNA gene were amplified from 5 μl of the eluted nucleic acids using a multiplex Q-PCR protocol with suitable primers and probes for both target and reference amplifications. […] For exon 3 of the β-actin gene (GenBank accession number E01094) the sense, probe, and antisense primers are 5′-[…]-3′,5′-6-[…]-3′ and 5′-[…]-3′, respectively. The primers and probes for the rRNA gene are commercially available from Applied Biosystems. […] The comparative CT method uses arithmetic formulas in which the amount of target (COXII gene) is normalized to the amount of an endogenous reference (the β-actin or rRNA gene) and is relative to a calibrator (a control with no drug at day 7). The arithmetic formula for this approach is given by 2-ΔΔCT, where ΔΔCT is (CT for average target test sample−CT for target control)−(CT for average reference test−CT for reference control) (see Johnson M R, K Wang, J B Smith, M J Heslin, R B Diasio. Quantitation of dihydropyrimidine dehydrogenase expression by real-time reverse transcription polymerase chain reaction. Anal. Biochem. 2000; 278:175-184). A decrease in mitochondrial DNA content in cells grown in the presence of drug would indicate mitochondrial toxicity.
as §2

[5] = Huh-7, 120 h, HCV Replicon (Huh7), five days incubation, read-out: EC50
[6] = Huh 7 Clone B cells containing HCV replicon RNA
[7] = 1 μM, HepG2 Hepatoma cells, 14 day assay
[8] = 10 μM, HepG2 Hepatoma cells, 14 day assay
[9] = 50 μM, HepG2 Hepatoma cells, 14 day assay

In the case of `CCOC(=O)CCc1ccccc1OP(=O)(N[C@@H](C)C(=O)OCC)OC[C@H]1O[C@@H](n2cnc3c(N)nc(N)nc32)C(C)(F)C1O` (stereo partly drawn), the EC50 ([1]; Huh-7, 120 h) is reported as 0.7 µM, the EC90 ([1]; Huh-7, 120 h) is reported as 2.9 µM and the CC50 at 5 day [2] is reported as > 10 µM.

In the case of `CC(C)OC(=O)CCNC(=O)[C@@H]1OP(=O)(OC[C@H]2O[C@@H](n3cnc4c(N)nc(N)nc43)C(C)(O)C2O)OCC1(C)C` (stereo partly drawn), the EC50 [1, 5] is reported as > 10 µM, the EC50 ([1]; Huh-7, HCV Replicon (Huh7), second line printed as EC50 in the entry, read-out: EC50) is reported as > 10 µM and the CC50 at 5 day [2, 6] is reported as > 10 µM.

With `CCOC(=O)CCc1ccccc1O[P@@](=O)(N[C@@H](C)C(=O)OCC)OC[C@H]1O[C@@H](n2cnc3c(N)nc(N)nc32)C(C)(O)C1O` (stereo partly drawn) the EC50 ([1]; Huh-7, 120 h) was 0.2 µM, the EC90 ([1]; Huh-7, 120 h) was 0.7 µM and the CC50 at 5 day [2] was > 10 µM.

With `CCOC(=O)CCc1ccccc1O[P@](=O)(N[C@@H](C)C(=O)OCC)OC[C@H]1O[C@@H](n2cnc3c(N)nc(N)nc32)C(C)(O)C1O` (stereo partly drawn) the EC50 ([1]; Huh-7, 120 h) was 2.3 µM, the EC90 ([1]; Huh-7, 120 h) was 7.7 µM and the CC50 at 5 day [2] was > 3 µM.

With `CCOC(=O)[C@H](C)NP(=O)(OCC1O[C@@H](n2cnc3c(N)nc(N)nc32)C(C)(O)C1O)Oc1ccccc1` (stereo in doubt) [Compound 8a, (2S)-ethyl 2-((((2S,3R,4R,5R)-5-(2,6-diamino-9H-purin-9-yl)-3,4-dihydroxy-4-methyltetrahydrofuran-2-yl)methoxy)(phenoxy)phosphorylamino)propanoate] the “intracellular guanine analog triphosphate” value (Huh7 cells) was “also detected”, the “intracellular level of 2,6-diamino-2′-C-Me purine triphosphate” value (Huh7 cells) was “unexpectedly high levels” and the “effect on nuclear or mitochondrial DNA or lactic acid production” value ([3]; up to 50 μM, HepG2 Hepatoma cells, 14 day assay, summary also covers nuclear DNA and lactic acid) was “no significant effect”.

With `CC1(O)C(O)[C@@H](CO)O[C@H]1n1cnc2c(N)nc(N)nc21` (stereo partly drawn) [Compound 12, 2,6-diamino-2′-C-Me purine nucleoside] the “intracellular guanine analog triphosphate” value (Huh7 cells) was “major triphosphate detected” and the “intracellular level of 2,6-diamino-2′-C-Me purine triphosphate” value (Huh7 cells) was “extremely low levels”.

For `Nc1nc(N)c2ncn([C@H]3CO[C@@H](CO)O3)c2n1` [DAPD], the “intracellular level of DAPD” value (PBM cells) was “Low levels”, the “intracellular level of DAPD-TP / phosphorylated forms of DAPD” value (PBM cells) was “no phosphorylated forms of DAPD were detected” and the “intracellular level of DXG-TP” value (PBM cells) was “high levels”.

In the case of `CCOC(=O)[C@H](C)NP(=O)(OC[C@@H]1OC[C@H](n2cnc3c(N)nc(N)nc32)O1)Oc1ccccc1` (stereo partly drawn) [RS-864], the “intracellular level of DAPD” value (PBM cells) is reported as “low levels”, the “intracellular level of DAPD-TP / phosphorylated forms of DAPD” value (PBM cells) is reported as “very high levels” and the “intracellular level of DXG-TP” value (PBM cells) is reported as “low levels”. For the same compound, the “ratio of DXG-TP (6-OH) to DAPD-TP (6-NH2)” value (PBM cells; LC/MS/MS) was 2 to 98.

In the case of `CCOC(=O)CCc1ccccc1OP(=O)(N[C@H](C)C(=O)OCC)OC[C@H]1O[C@@H](n2cnc3c(N)nc(N)nc32)C(C)(O)C1O` (stereo partly drawn) [drawing 49], the “% Inhibition nuclear DNA” value [4, 7] is reported as 30%, the “% Inhibition nuclear DNA” value [4, 8] is reported as 16% and the “% Inhibition nuclear DNA” value [4, 9] is reported as 10%. The “% Inhibition MtDNA” value [3, 7] was 24%, the “% Inhibition MtDNA” value [3, 8] was 34% and the “% Inhibition MtDNA” value [3, 9] was 43%.

With `CC1(O)C(O)[C@@H](CO)O[C@H]1n1cnc2c(N)nc(N)nc21` (stereo partly drawn) [drawing 50] the “% Inhibition nuclear DNA” value ([4]; human, 14 day, 1 μM) was 22%, the “% Inhibition nuclear DNA” value ([4]; human, 14 day, 10 μM) was 46% and the “% Inhibition nuclear DNA” value ([4]; human, 14 day, 50 μM) was 21%. The “% Inhibition MtDNA” value ([3]; human, 14 day, 1 μM) was < 1%, the “% Inhibition MtDNA” value ([3]; human, 14 day, 10 μM) was < 1% and the “% Inhibition MtDNA” value ([3]; human, 14 day, 50 μM) was < 1%.

For `CCOC(=O)[C@H](C)NP(=O)(OC[C@H]1O[C@@H](n2cnc3c(N)nc(N)nc32)C(C)(O)C1O)Oc1ccccc1` (stereo partly drawn) [drawing 51], the “% Inhibition nuclear DNA” value [4, 7] was 4.0%, the “% Inhibition nuclear DNA” value [4, 8] was 20% and the “% Inhibition nuclear DNA” value [4, 9] was < 1%. For the same compound, the “% Inhibition MtDNA” value [3, 7] was < 1%, the “% Inhibition MtDNA” value [3, 8] was 5.4% and the “% Inhibition MtDNA” value [3, 9] was < 1%.

In the case of `CC1(O)C(O)[C@@H](CO)O[C@H]1n1cnc2c(N)nc(N)nc21` (stereo partly drawn) [drawing 55], the EC50 [1, 5] is reported as 3.7 µM, the EC90 ([1]; Huh-7, 120 h, HCV Replicon (Huh7), five days incubation, read-out: EC90) is reported as 11 µM and the CC50 at 5 day [2, 6] is reported as > 10 µM.

With `CCOC(=O)[C@H](C)NP(=O)(OC[C@H]1O[C@@H](n2cnc3c(N)nc(N)nc32)C(C)(O)C1O)Oc1ccccc1` (stereo partly drawn) [drawing 56] the EC50 ([1]; Huh-7, 120 h) was 1.3 µM, the EC90 ([1]; Huh-7, 120 h) was 4.9 µM and the CC50 at 5 day [2] was > 10 µM.
